# According to US20220089592A1, “IMIDAZO[1,2-A]PYRIDINYL DERIVATIVES AS IRAK4 INHIBITORS” (priority 2019, published 2022):
# Where a name gives a salt, the structure may show the parent alone.
# Target: T1, IRAK4 (Homo sapiens, UniProt Q9NWZ3)
# T1 sequence (Q9NWZ3 1-460): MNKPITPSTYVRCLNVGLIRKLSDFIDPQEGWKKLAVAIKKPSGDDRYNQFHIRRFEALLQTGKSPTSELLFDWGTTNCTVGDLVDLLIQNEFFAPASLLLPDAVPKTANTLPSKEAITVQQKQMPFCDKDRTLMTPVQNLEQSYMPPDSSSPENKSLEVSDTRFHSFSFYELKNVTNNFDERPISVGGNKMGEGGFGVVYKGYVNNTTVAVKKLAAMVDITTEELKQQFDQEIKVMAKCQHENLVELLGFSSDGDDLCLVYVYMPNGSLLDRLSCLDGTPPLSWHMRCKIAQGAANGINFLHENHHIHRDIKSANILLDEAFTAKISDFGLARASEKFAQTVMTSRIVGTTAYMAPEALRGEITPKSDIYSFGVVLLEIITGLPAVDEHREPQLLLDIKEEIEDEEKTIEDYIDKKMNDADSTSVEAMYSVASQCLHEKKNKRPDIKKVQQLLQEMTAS
# Assay: 2-hour 1 mM ATP IRAK4 Biochemical assay (as above, but with 100 pM IRAK4 and 1 mM ATP)
# Conditions: IRAK4 MSD BIOCHEMICAL (1 mM ATP) IC50 (μM), 100 pM IRAK4, 2 hours
# Summary of the method: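 MSD electrochemiluminescence read-out: biotinylated peptide product bound to streptavidin plates, probed with anti-P-Thr rabbit antibody and Sulfo-Tag goat anti-rabbit. Kinase reaction used 1 mM ATP and 100 pM IRAK4 over 2 hours before EDTA quench.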
row,Compound,IC50 [µM]
1,"CC(C)Oc1c(NC(=O)c2ccn(C(C)C)n2)cn2cc(C34COC(C)(C3)C4)nc2c1F [Example 546, N-(8-fluoro-7-isopropoxy-2-(1-methyl-2-oxabicyclo[2.1.1]hexan-4-yl)imidazo[1,2-a]pyridin-6-yl)-1-isopropyl-1H-pyrazole-3-carboxamide 2,2,2-trifluoroacetate]",0.001
2,"COc1nc(NC(=O)c2cccc(C(F)F)n2)cn2cc(C34CC(OC)(C3)C4)nc12 [Example 553, 6-(difluoromethyl)-N-(8-methoxy-2-(3-methoxybicyclo[1.1.1]pentan-1-yl)imidazo[1,2-a]pyrazin-6-yl)picolinamide 2,2,2-trifluoroacetate]",0.011
3,"Cn1ccc(C(=O)Nc2cn3cc(C45COC(C)(C4)C5)nc3c(F)c2OC2CCCC2)n1 [Example 437, N-(7-(cyclopentyloxy)-8-fluoro-2-(1-methyl-2-oxabicyclo[2.1.1]hexan-4-yl)imidazo[1,2-a]pyridin-6-yl)-1-methyl-1H-pyrazole-3-carboxamide 2,2,2-trifluoroacetate]",0.004
4,"CC(C)Oc1nc2nc(C34COC(C)(C3)C4)cn2cc1NC(=O)c1ccn(C(F)F)n1 [Example 498, 1-(difluoromethyl)-N-(7-isopropoxy-2-(1-methyl-2-oxabicyclo[2.1.1]hexan-4-yl)imidazo[1,2-a]pyrimidin-6-yl)-1H-pyrazole-3-carboxamide]",0.001
5,"CC(C)Oc1nc2nc(C3C4COCC43)cn2cc1NC(=O)c1ccn(C(C)C)n1 (centres unmarked) [Example 501, N-(2-(3-oxabicyclo[3.1.0]hexan-6-yl)-7-isopropoxyimidazo[1,2-a]pyrimidin-6-yl)-1-isopropyl-1H-pyrazole-3-carboxamide hydrochloride]",0.002
6,"CC(C)Oc1nc2nc(C34COC(C)(C3)C4)cn2cc1NC(=O)c1cnn2cccc(F)c12 [Example 349, 4-fluoro-N-(7-isopropoxy-2-(1-methyl-2-oxabicyclo[2.1.1]hexan-4-yl)imidazo[1,2-a]pyrimidin-6-yl)pyrazolo[1,5-a]pyridine-3-carboxamide]",0.001
7,"COc1nc(NC(=O)c2cccc(C(F)(F)F)n2)cn2cc(C3CCCOC3)nc12 (single isomer, unassigned) [Example 299, N-(8-methoxy-2-(tetrahydro-2H-pyran-3-yl)imidazo[1,2-a]pyrazin-6-yl)-6-(trifluoromethyl)picolinamide]",0.007
8,"O=C(Nc1cn2cc(C3CCOCC3)nc2cc1OCC1CCCOC1)c1cccc(C(F)F)n1 (centres unmarked) [Example 193, 6-(difluoromethyl)-N-(7-((tetrahydro-2H-pyran-3-yl)methoxy)-2-(tetrahydro-2H-pyran-4-yl)imidazo[1,2-a]pyridin-6-yl)picolinamide]",0.001
9,"CCCOc1nc(NC(=O)c2cccc(C(F)F)n2)cn2cc(C34COC(C)(C3)C4)nc12 [Example 574, 6-(difluoromethyl)-N-(2-(1-methyl-2-oxabicyclo[2.1.1]hexan-4-yl)-8-propoxyimidazo[1,2-a]pyrazin-6-yl)picolinamide]",0.002
10,"COc1cccc(C(=O)Nc2cn3cc(C4CCOCC4)nc3cc2C(F)F)n1 [Example 389, N-(7-(difluoromethyl)-2-(tetrahydro-2H-pyran-4-yl)imidazo[1,2-a]pyridin-6-yl)-6-methoxypicolinamide 2,2,2-trifluoroacetate]",0.016
11,"CCOc1cc(NC(=O)c2cccc(C(F)(F)F)n2)cn2cc(C3CCOCC3)nc12 [Example 415, N-(8-ethoxy-2-(tetrahydro-2H-pyran-4-yl)imidazo[1,2-a]pyridin-6-yl)-6-(trifluoromethyl)picolinamide hydrochloride]",0.033
12,"COc1nc(NC(=O)c2cccc(C(F)F)n2)cn2cc(C3CCCOC3)nc12 (centres unmarked) [Example 549, 6-(difluoromethyl)-N-(8-methoxy-2-(tetrahydro-2H-pyran-3-yl)imidazo[1,2-a]pyrazin-6-yl)picolinamide]",0.005
13,"Cc1cccc(C(=O)Nc2cn3cc(C45COC(C)(C4)C5)nc3cc2C(F)F)n1 [Example 392, N-(7-(difluoromethyl)-2-(1-methyl-2-oxabicyclo[2.1.1]hexan-4-yl)imidazo[1,2-a]pyridin-6-yl)-6-methylpicolinamide 2,2,2-trifluoroacetate]",0.008
14,"COc1nc(NC(=O)c2cccc(C(F)F)n2)cn2cc(C34CCC(CC3)OC4)nc12 [Example 561, N-(2-(2-oxabicyclo[2.2.2]octan-4-yl)-8-methoxyimidazo[1,2-a]pyrazin-6-yl)-6-(difluoromethyl)picolinamide]",0.051
15,"COc1ccccc1C(=O)Nc1cn2cc(C34CC(C#N)(C3)C4)nc2cc1OC(C)C [Example 311, N-(2-(3-cyanobicyclo[1.1.1]pentan-1-yl)-7-isopropoxyimidazo[1,2-a]pyridin-6-yl)-2-methoxybenzamide]",0.006
16,"CC(C)Oc1cc2nc(C3CCOCC3)cn2cc1NC(=O)c1ccn(C)n1 [Example 384, N-(7-isopropoxy-2-(tetrahydro-2H-pyran-4-yl)imidazo[1,2-a]pyridin-6-yl)-1-methyl-1H-pyrazole-3-carboxamide]",0.004
17,"CC(C)Oc1cc2nc(C34COC(C)(C3)C4)c(Cl)n2cc1NC(=O)c1cccc(C(F)F)n1 [Example 575, N-(3-chloro-7-isopropoxy-2-(1-methyl-2-oxabicyclo[2.1.1]hexan-4-yl)imidazo[1,2-a]pyridin-6-yl)-6-(difluoromethyl)picolinamide 2,2,2-trifluoroacetate]",0.012
18,"O=C(Nc1cc(Cl)c2nc(C3CCOCC3)cn2c1)c1cccc(C(F)F)n1 [Example 308, N-(8-chloro-2-(tetrahydro-2H-pyran-4-yl)imidazo[1,2-a]pyridin-6-yl)-6-(difluoromethyl)picolinamide]",0.043
19,"O=C(Nc1cn2cc(C3CCOCC3)nc2cc1OCCOC(F)F)c1cccc(C(F)F)n1 [Example 192, N-(7-(2-(difluoromethoxy)ethoxy)-2-(tetrahydro-2H-pyran-4-yl)imidazo[1,2-a]pyridin-6-yl)-6-(difluoromethyl)picolinamide]",0.002
20,"COc1cccc(C(=O)Nc2cn3cc(C45COC(C)(C4)C5)nc3c(OC)n2)n1 [Example 448, 6-methoxy-N-(8-methoxy-2-(1-methyl-2-oxabicyclo[2.1.1]hexan-4-yl)imidazo[1,2-a]pyrazin-6-yl)picolinamide 2,2,2-trifluoroacetate]",0.023
21,"COc1nc(NC(=O)c2cccc(C(F)F)n2)cn2cc(C3C4COCC43)nc12 (centres unmarked) [Example 551, N-(2-(3-oxabicyclo[3.1.0]hexan-6-yl)-8-methoxyimidazo[1,2-a]pyrazin-6-yl)-6-(difluoromethyl)picolinamide 2,2,2-trifluoroactetate]",0.026
22,"O=C(Nc1cn2cc(C3CCOCC3)nc2c(N2CCCC2)n1)c1cccc(C(F)F)n1 [Example 342, 6-(difluoromethyl)-N-(8-(pyrrolidin-1-yl)-2-(tetrahydro-2H-pyran-4-yl)imidazo[1,2-a]pyrazin-6-yl)picolinamide]",0.055
23,"CCOc1cc(NC(=O)c2cccc(C(F)(F)F)n2)cn2cc([C@H]3[C@@H]4COC[C@@H]43)nc12 [Example 416, N-(2-((1R,5S,6s)-3-oxabicyclo[3.1.0]hexan-6-yl)-8-ethoxyimidazo[1,2-a]pyridin-6-yl)-6-(trifluoromethyl)picolinamide]",0.023
